Reference: US9040502B2, “Anti-XDR-TB drug, anti-MDR-TB drug, and combination anti-tuberculosis drug” (priority 2008, dated 2015)
≈ marks a conversion by molar mass, not a printed value. Read-outs that look alike come from different tables or passages of the source.

Experiments:
[1] = tested on: Mycobacterium tuberculosis XDR-TB (0306-0206); assay type: cell-based; conditions: Ratio Method
[2] = tested on: M. tuberculosis MDR (RFP, INH, KM, SM EB, TH); assay: MIC, agar multiple dilution method (Test Example 2); assay type: cell-based; conditions: Mycobacterium tuberculosis, 336 h
[3] = tested on: M. tuberculosis MDR (RFP, INH, KM EB, TH, PAS, EVM); assay: as above; assay type: cell-based; conditions: Mycobacterium tuberculosis, 336 h
[4] = tested on: M. tuberculosis XDR (RFP, INH, KM EB, TH, PAS, EVM, LVFX); assay: as above; assay type: cell-based; conditions: Mycobacterium tuberculosis, 336 h
[5] = tested on: M. tuberculosis MDR (RFP, INH); assay: as above; assay type: cell-based; conditions: Mycobacterium tuberculosis, 336 h
[6] = tested on: M. tuberculosis XDR-TB (0306-0206); assay type: in vivo, Mycobacterium tuberculosis in BALB/c mice; conditions: BALB/c mice, i.v. infection; s.c., 14 doses; CPZEN-45 6.3-200 mg/kg, SM 25-200 mg/kg; Day 30

Nc1ccc(C(=O)O)c(O)c1 [PAS, para-amino-salicylic acid]
Determination (drug sensitivity) ([1]; drug concentration 0.5 μg/mL): R

CO[C@H]1/C=C/O[C@@]2(C)Oc3c(C)c(O)c4c(O)c(c(/C=N/N5CCN(C)CC5)c(O)c4c3C2=O)NC(=O)/C(C)=C\C=C\[C@H](C)[C@H](O)[C@@H](C)[C@@H](O)[C@@H](C)[C@H](OC(C)=O)[C@@H]1C [RFP, rifampicin]
MIC [2]: > 40 µg/mL
Determination (drug sensitivity) ([1]; drug concentration 40 μg/mL): R
MIC [3]: > 40 µg/mL
MIC [4]: > 40 µg/mL
MIC [5]: > 40 µg/mL

N[C@@H]1CON=C1O [CS, cycloserine]
Determination (drug sensitivity) ([1]; drug concentration 30 μg/mL): S

CCCCc1ccc(NC(=O)C2=CCN(C)[C@@H]([C@H](O[C@@H]3O[C@H](CN)[C@@H](O)[C@H]3O)[C@H]3O[C@@H](n4ccc(=O)[nH]c4=O)[C@H](O)[C@@H]3O)C(=O)N2C)cc1 [CPZEN-45, (S)-2-{[(2S,3R,4S,5R)-(5-aminomethyl-3,4-dihydroxyoxolan-2-yl)oxy][(2S,3S,4R,5R)-5-(2,4-dioxo-1,2,3,4-tetrahydropyrimidin-1-yl)-3,4-dihydroxyoxolan-2-yl]-(S)-methyl}-N-(4-butylphenyl)-1,4-dimethyl-3-oxo-1H-1,4-diazepine-5-carboxamide]
Antibacterial effects (number of tuberculosis bacteria in lungs, liver and spleen, FIGS. 3 to 5) [6]: antibacterial effects significantly higher than those of SM
MIC [2]: 6.25 µg/mL (≈ 9.07 µM)
MIC [3]: 6.25 µg/mL (≈ 9.07 µM)
MIC [4]: 6.25 µg/mL (≈ 9.07 µM)
MIC [5]: 6.25 µg/mL (≈ 9.07 µM)

[H]/N=C(/N)N[C@H]1[C@H](O)[C@@H](O)[C@H](O[C@@H]2O[C@@H](C)[C@](O)(C=O)[C@H]2O[C@@H]2O[C@@H](CO)[C@H](O)[C@@H](O)[C@@H]2NC)[C@@H](N/C(N)=N\[H])[C@@H]1O [SM, streptomycin]
Antibacterial effects (number of tuberculosis bacteria in lungs, liver and spleen, FIGS. 3 to 5) [6]: no antibacterial effects
Determination (drug sensitivity) ([1]; drug concentration 10 μg/mL): R

C[C@H]1COc2c(N3CCN(C)CC3)c(F)cc3c(=O)c(C(=O)O)cn1c23 [LVFX, levofloxacin]
Determination (drug sensitivity) ([1]; drug concentration 1.0 μg/mL): R

NC[C@H]1O[C@H](O[C@H]2[C@H](O)[C@@H](O[C@H]3O[C@H](CO)[C@@H](O)[C@H](N)[C@H]3O)[C@H](N)C[C@@H]2N)[C@H](O)[C@@H](O)[C@@H]1O [KM, kanamycin]
Determination (drug sensitivity) ([1]; drug concentration 20 μg/mL): R

NNC(=O)c1ccncc1 [INH, isonicotinic acid hydrazide]
Determination (drug sensitivity) ([1]; drug concentration 1.0 μg/mL): R

CC[C@@H](CO)NCCN[C@@H](CC)CO [EB, ethambutol]
Determination (drug sensitivity) ([1]; drug concentration 2.5 μg/mL): R

enviomycin [EVM]
Determination (drug sensitivity) ([1]; drug concentration 20 μg/mL): R

CCc1cc(C(N)=S)ccn1 [TH, ethionamide]
Determination (drug sensitivity) ([1]; drug concentration 20 μg/mL): R
